The source of these data is paper PMC5007466, “VCP recruitment to mitochondria causes mitophagy impairment and neurodegeneration in models of Huntington's disease” (Nature Communications, 2016).

Series [1] has as its system wt mice (R6/2 littermates). The experiment in a line: Motor ability, body weight, life span of wt littermates. The note with it: 3 mg kg^−1 per day, 5–13 weeks of age. It counts as in vivo, mouse. The protocol:
(§1) Male hemizygous R6/2 mice (Tg) and their age-matched wt littermates (5-week-old) were implanted with a 28-day osmotic pump (Alzet, Cupertino CA) containing TAT control peptide or HV-3 peptide, which delivered peptides to the mice at a rate of 3 mg kg^−1 per day. The first pump was implanted subcutaneously in the back of 5-week-old mice between the shoulders and replaced once, after 4 weeks.
Gross locomotor activity was assessed in R6/2 mice and age-matched wt littermates at the ages of 13 weeks and in YAC128 mice and age-matched wt littermates at the ages of 2, 3, 6, 9, and 12 months. In an activity chamber (Omnitech Electronics, Inc), mice were placed in the center of the chamber and allowed to explore while being tracked by an automated beam system (Vertax, Omnitech Electronics Inc). Distance moved, horizontal, vertical, and rearing activities were recorded. Because R6/2 mice were sensitive to changes in environment and handling, we only conducted one-hour locomotor activity analysis for R6/2 mice and wt littermates. We performed 24 h of locomotor activity analysis for YAC128 mice and their wt littermates.
(§2) The body weight and survival rate of HD mice and wt littermates were recorded throughout the study period.

For series [2], the system named is HD patient-iPS cell derived neurons. Description: Lysosomal activity (Lyso-ID Red). It is filed as cell-based, human. Conditions: 1 μM per day for 5 days. The protocol:
iPS cells from a normal subject and a HD patient (carrying 41 CAG repeats) were differentiated into neurons using the protocol from our previous studies. Briefly, iPS cells were plated onto 6-well plates precoated with 2.5% Matrigel and allowed to reach 90% confluence in feeder-free medium. For the first 10 days, cells were treated with SB431542 (10 μM; Tocris Bioscience) and Noggin (100 ng/ml) in Neural Media (NM) containing Neurobasal and DMEM (1:1), B27 supplement minus vitamin A (50 × , Invitrogen), N2 supplement (100 × , Invitrogen), GlutaMax (Invitrogen, 100 × ), FGF2 ([…]) and EGF ([…]), 100 units per ml penicillin and 100 μg ml^−1 streptomycin). […]
To determine mitochondrial mass in cultures, cells were stained with antibodies against Tom20 or stained with Mitotracker green. The fluorescent density of Tom20 (1:500) or mitotracker green was quantitated using NIH Image J software. […] The images were visualized by microscope and quantitation of the density of red fluorescence was carried out using NIH ImageJ software. For immunocytochemistry study, at least 100 cells per group were counted and quantitated by an observer blind to experimental conditions.

The test system of series [3] is YAC128 mice. Description: EM of striatal mitophagosomes. It counts as in vivo, mouse. The note with it: YAC128, 3 mg kg^−1 per day, age 3–9 months, per 100 μm^2. From the text: The HdhQ7 and HdhQ111 cells were fixed by 2.5% glutaraldehyde in 0.1 M cacodylate buffer. Small pieces of the striata tissue of mice were fixed by immersion in triple aldehyde-DMSO. After rinsing in 0.1 M phosphate buffer (pH 7.3), the samples were post-fixed in ferrocyanide-reduced osmium tetroxide.
The above fixed samples were rinsed by water followed by overnight soaking in acidified uranyl acetate. After rinsing in distilled water, the blocks were dehydrated in ascending concentrations of ethanol, passed through propylene oxide, and embedded in Poly/Bed resin. Thin sections were sequentially stained with acidified uranyl acetate followed by a modification of Sato's triple lead stain. These sections were examined in a FEI Tecnai Spirit (T12) transmission electron microscope with a Gatan US4000 4kx4k CCD at the Case Western Reserve University EM core facility. Mitochondria from 15 random areas in each group were imaged by an experimenter blind to the experimental groups. The length of mitochondria was measured by NIH Image J software. The number of mitophagosomes per 100 μm^2 was counted. The number of gold particles labelling VCP on mitochondria were quantitated.
YAC128 mice (Tg) and their age-matched wt littermates were implanted with an osmotic pump containing TAT control peptide or HV-3 peptide (3 mg/kg/day, each) starting from the age of 3 months. […]

For series [4], the system named is R6/2 mice. The experiment in a line: Body weight and survival, R6/2. It is filed as in vivo, mouse. The note with it: R6/2, 5–13 weeks of age, 3 mg kg^−1 per day, n=15. The method, then: as §1, §2
For series [5], the system named is HD mouse striatal cells. Description: Caspase-3 activity (apoptosis). It is filed as cell-based. The note with it: 24 h serum starvation, HV-3. The protocol:
mouse striatal cells were treated with thapsigargin (1μM) or tunicamycin (10μ g/ml) for 16 hours i n the presence or absence of HV -3 (3 µM). GRP78 total protein levels were determined by western blot analysis. Representative blots of three independent experiments are shown. Actin was used here as a loading control. (b) Tw e n t y -four hours of serum starvation was performed in HD mouse striatal cells.
Caspase-3 activity analysis was performed in the indicated groups. Data are mean ± SEM of three independent experiments. (c) Flag-VCP and GFP-LC3B were co-transfected into HdhQ7 striatal cells.
Total lysates were isolated after 36 hours of transfection. The GFP -LC3B levels were examined by western blot analysis. Actin was used as a loading control. Histogram: quantitation of GFP-LC3B total protein level. Data are mean ± SEM of three independent experiments.
(1 picture or pasted object on this page, not shown here)

`CSCC[C@H](NC(=O)[C@@H](NC(=O)[C@H](CC(C)C)NC(=O)[C@@H](NC(=O)[C@H](Cc1c[nH]cn1)NC(=O)CCCCCNC(=O)[C@H](CCCNC(=N)N)NC(=O)[C@H](CCCNC(=N)N)NC(=O)[C@H](CCCNC(=N)N)NC(=O)[C@H](CCC(N)=O)NC(=O)[C@H](CCCNC(=N)N)NC(=O)[C@H](CCCNC(=N)N)NC(=O)[C@H](CCCCN)NC(=O)[C@H](CCCCN)NC(=O)[C@H](CCCNC(=N)N)NC(=O)CNC(=O)[C@@H](N)Cc1ccc(O)cc1)C(C)C)C(C)C)C(=O)N[C@@H](CS)C(=O)N[C@@H](C)C(=O)N[C@H](C(N)=O)[C@@H](C)O` [HV-3]: the “motor ability, body weight, life span of wt mice” value in series [1] was “no effects on motor ability, body weight, or life span in wt mice”. Further, the lysosome hyperactivity result in series [2] is listed as “corrected these aberrant events”. The “number of mitophagosomes in striatum” value in series [3] is recorded as “reduced by HV-3 treatment”. In addition, in series [4], the body weight result was “increased body weight”; the survival rate entry was “increased body weight and survival rate”. Further, in series [5], the “apoptosis (caspase-3 activity)” value is “did not affect apoptosis”.
